Measured values from US20170281611A1, “QUINOLINES AND THEIR USE FOR TREATING ENDOPLASMIC RETICULUM STRESS-CAUSED DISEASES” (EIGER BIOPHARMACEUTICALS, INC., priority 2014, published 2017).
Like-named read-outs stand apart in the source and are kept apart here.

How the values were obtained:
SERCA, cardiac SR = biological target: T1, SERCA, cardiac SR; assay: Activation of SERCA, NADH-linked enzyme-coupled ATPase assay, cardiac SR; assay type: biochemical; conditions: read-out: CSR EC50
T1 construct: 2 mg or 7 mg of SR vesicles (optimized for skeletal or cardiac SR, respectively); from tissue; host or cells: cardiac sarcoplasmic reticulum vesicles
Description: Test compounds were characterized over a range of concentrations using an NADH-linked, enzyme-coupled ATPase assay. Each well contained 2 mg or 7 mg of SR vesicles (optimized for skeletal or cardiac SR, respectively), 50 mM MOPS (pH 7.0), 100 mM KCl, 5 mM MgCl2, 1 mM EGTA, 0.2 mM NADH, 1 mM phosphoenol pyruvate, 5 IU pyruvate kinase, 5 IU lactate dehydrogenase, and 3.5 mg/mL A23187 (a calcium ionophore), and CaCl2 was added to set free [Ca2+] to the specific values. The assay was started upon addition of ATP at a final concentration of 5 mM, and read in a SpectraMax Plus microplate spectrophotometer and the ATPase activities were fitted using the Hill function.

SERCA = assay: Ca-ATPase assay, microsomal preparations from HEK 293 cells; assay type: biochemical, human
Description: A Ca-ATPase assay was performed using microsomal preparations from HEK 293 cells at a series of calcium concentrations corresponding to the physiological range, relative to controls. The ATP hydrolysis rate was measured over a range of calcium concentrations in the presence of test compounds using an NADH-linked, enzyme-coupled ATPase assay adapted for 96-well microplates, with Vmax determined by fitting the ATPase calcium-dependence to the Hill function. […] CaCl2 was added to set free [Ca^2+] to the specific values.

[1] = Pharmacokinetics in Beagle dogs (Table 5); assay type: in vivo; conditions: dog, PO (10 mg/kg) vs IV (1 mg/kg), based on AUC0-t
Description: For pharmacokinetic evaluation, 3 male Beagle dogs were intravenously (IV) dosed (1 mg/kg body weight) and 3 male Beagle dogs were orally (PO) dosed (10 mg/kg body weight) with a test compound. Blood (approximately 1.0 mL) was collected via femoral vein into tubes containing K3EDTA anticoagulant at 0, 0.017, 0.083, 0.5, 1, 2, 4, 6, 8, and 24 hours post-dosing. Plasma samples were analyzed by LC-MS/MS. The analytical results were confirmed using quality control samples for intra-assay variation. The accuracy of >66% of the quality control samples was between 80-120% of the known value(s). A standard set of pharmacokinetic parameters were generated from concentration data including Area Under the Curve (AUC0-t and AUC0-inf), elimination half-lives, clearances, volume of distribution and bioavailabilities (based on AUC0-t), maximum plasma concentration (C0; Cmax), and time to reach maximum plasma concentration (Tmax).

[2] = tested on: 6-OHDA lesioned Wistar rats; assay: Rat unilateral 6-OHDA model of Parkinson's disease, stepping test; assay type: in vivo; conditions: D11, 10 mg/kg IP once daily for 15 days, t test
Description: Fifty adult male Wistar rats were used. The rats from different groups (G1 to G5) were randomized. At the beginning of the study, the rats were about 5 weeks old and naive to previous administration of any drug.
A stereotaxic injection of 6-OHDA (G2 to G5) or saline (G1: sham group) was performed to induce a unilateral dopaminergic lesion on day 0 (D0). Surgery was performed on D0 under ketamine (50 mg/kg) and xylazine (10 mg/kg). The rats of G2 to G5 received a unilateral injection of 6-OHDA (6 μL) in the left substantia nigra pars compacta. Jouve et al., J. Neurosci. 2010, 30, 9919-9928. The rats of the G1 sham group were injected with saline. During surgery, local analgesia was achieved using subcutaneous injections of lidocaine. At the end of surgery, the rats were treated with buprenorphine (0.05 mg/kg, S.C.).
The stepping test was performed after IT test, both before the 6-OHDA lesion induction on D0 and on D11. Around D−6, the stepping test was performed eight consecutive times for the right paw of each animal to obtain baseline values. On D11, the stepping test was performed one hour after the rats were dosed. Each rat was hold by an experimenter and only one of the two forelimbs was left free to move above a plane surface and the other was held with the paw touching the table. The rats were then to be moved slowly forward by the experimenter. The number of adjusting steps was countered for the right paw. Olsson et al., J. Neurosci. 1995, 15, 3863-3875.
L-DOPA and benserazide (a peripheric DOPA decarboxylase inhibitor) were prepared together as a single solution containing 0.9% NaCl and 0.1% ascorbic acid.
All the dosings were given via the IP route, once daily, Sunday excluded.

[3] = Pharmacokinetics in Sprague Dawley rats (Table 4); assay type: in vivo; conditions: rat; for AUC(0-inf) / AUC(0-t) / Cmax / Tmax / clearance / half-life / MRT inf / Vd: Sprague Dawley, in vivo; for MRT inf: read-out: MRT0-∞; for Vd: read-out: Vz; for F: PO (10 mg/kg) vs IV (2 mg/kg)
Description: Compound D1 was formulated in 0.3% DMA/1% SOLUTOL®/98.7% saline. Compound D6 was formulated in 0.5% DMA/1% SOLUTOL®/94.5% 0.01N HCl in saline/4% NaOH (pH 4-5).

CSM14.1 cells = assay: ER stress cell survival assay (thapsigargin, […]-GLO); assay type: cell-based; conditions: dose-response
Description: CSM14.1 cells were maintained in Complete Medium at 32° C.; wherein the Complete Medium contained Dulbecco's modified eagle medium (DMEM) with 10% fetal bovine serum (FSB), 1% L-glutamine, 100 IU/mL penicillin, and 100 μg/mL streptomycin. The cells were recovered from cultures by trypsinization and then seeded in 384 well plates (Greiner #781098) at a concentration of 1,000 cells/well in 20 μL of DMEM Assay Medium, wherein the DMEM Assay Medium contained 2% FBS, 100 IU/mL penicillin, and 100 μg/mL streptomycin. Seeding was performed using a MultiDrop Combi reagent broadcaster. The plates were incubated overnight at 32° C.
A test compound was prepared by 2-fold serial dilution in 100% DMSO using a BIOMEK® 2000 liquid handler (Beckman Coulter). A dose-response curve containing 10 concentrations of the test compound was obtained. Using a BIOMEK® FX liquid handler (Beckman Coulter), 2.5 μL of the test compound was transferred from the 100% DMSO serial dilution plate to an intermediate plate containing 47.5 μL of DMEM Assay Medium containing 2% FBS, 100 IU/mL penicillin, and 100 μg/mL streptomycin and mixed. To reduce or eliminate the interference from the compound's precipitation, 6 μL of the diluted compound was immediately transferred to the assay plate to achieve a high compound concentration of 100 μM in 99% DMEM Assay Medium and 1% DMSO. After the assay plates were incubated for 2 hrs, 4 μL of 112.5 μM thapsigargin (TG) (DMSO stock diluted into Assay TC Medium) was dispensed into each testing well with a MultiDrop Combi reagent broadcaster for a final concentration of about 15 μM TG. The tissue culture media (4 μL) containing vehicle only was transferred manually to each control cell using a 16 channel electronic pipette. […] High luminescence indicates cell survival.
Alternatively, a test compound was tested at a single compound concentration (e.g., 2 μM) to determine the effect of the compound on cell survival in comparison with vehicle.

T1 sequence (P16615 1-997 isoform P16615-2): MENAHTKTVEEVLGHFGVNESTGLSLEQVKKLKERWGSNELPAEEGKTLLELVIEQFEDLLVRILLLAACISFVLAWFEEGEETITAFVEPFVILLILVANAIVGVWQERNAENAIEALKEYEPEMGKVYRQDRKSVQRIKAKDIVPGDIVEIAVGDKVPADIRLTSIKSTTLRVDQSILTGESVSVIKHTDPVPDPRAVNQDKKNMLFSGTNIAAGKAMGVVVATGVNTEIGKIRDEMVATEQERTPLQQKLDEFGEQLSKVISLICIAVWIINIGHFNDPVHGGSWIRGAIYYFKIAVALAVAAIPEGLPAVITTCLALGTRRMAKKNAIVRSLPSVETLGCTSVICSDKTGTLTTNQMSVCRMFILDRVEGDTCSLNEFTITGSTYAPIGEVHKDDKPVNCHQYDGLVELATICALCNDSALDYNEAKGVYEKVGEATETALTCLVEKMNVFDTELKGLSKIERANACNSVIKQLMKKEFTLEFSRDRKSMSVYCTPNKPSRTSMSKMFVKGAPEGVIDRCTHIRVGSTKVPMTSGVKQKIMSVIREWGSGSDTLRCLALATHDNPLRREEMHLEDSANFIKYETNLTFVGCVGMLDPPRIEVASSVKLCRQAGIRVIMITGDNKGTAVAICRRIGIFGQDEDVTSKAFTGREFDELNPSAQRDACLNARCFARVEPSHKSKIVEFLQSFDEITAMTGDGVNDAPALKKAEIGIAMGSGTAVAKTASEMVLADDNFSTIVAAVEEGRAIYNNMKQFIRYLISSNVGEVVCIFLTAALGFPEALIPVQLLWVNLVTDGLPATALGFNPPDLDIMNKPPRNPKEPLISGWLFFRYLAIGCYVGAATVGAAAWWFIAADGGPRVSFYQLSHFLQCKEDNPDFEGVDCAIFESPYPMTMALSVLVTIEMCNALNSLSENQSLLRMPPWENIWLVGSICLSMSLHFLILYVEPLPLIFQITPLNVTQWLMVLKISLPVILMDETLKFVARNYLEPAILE

In the case of `Cc1ccc2cccc(NC(=O)c3ccc(C(C)(C)C)cc3)c2n1` [Compound A4, 4-(tert-Butyl)-N-(2-methylquinolin-8-yl)benzamide], the EC50 (SERCA, cardiac SR) is reported as under 20 µM.
Compound `O=C(Nc1cccc2cccnc12)c1cccc(F)c1` [Compound A7, 3-Fluoro-N-(quinolin-8-yl)benzamide] has an EC50 (SERCA, cardiac SR) of under 20 µM.
`CC(C)Oc1ccc(C(=O)Nc2cccc3cccnc23)cc1` [Compound A11, 4-Isopropoxy-N-(quinolin-8-yl)benzamide] gave an EC50 (SERCA, cardiac SR) of under 20 µM.
For `Cc1ccc2cccc(NC(=O)c3cccc(OC(C)C)c3)c2n1` [Compound A13, 3-Isopropoxy-N-(2-methylquinolin-8-yl)benzamide], the “Vmax of a SERCA” value (SERCA) was “significantly increased” and the F [1] was 1.4%.
In the case of `Cc1ccc2cccc(NC(=O)c3ccc(Br)s3)c2n1` [Compound B1, 5-Bromo-N-(2-methylquinolin-8-yl)thiophene-2-carboxamide], the “number of adjusting steps” value [2] is reported as “statistically significant increase”.
In the case of `O=C(c1ccccc1)N1CCN(c2ccnc3cc(Cl)ccc23)CC1` [Compound D1, (4-(7-Chloroquinolin-4-yl)piperazin-1-yl)(phenyl)methanone], the AUC(0-inf) ([3]; IV (2 mg/kg)) is reported as 5900 ± 454 ng·h/mL, the AUC(0-t) ([3]; IV (2 mg/kg)) is reported as 5880 ± 453 ng·h/mL and the Cmax ([3]; IV (2 mg/kg)) is reported as 18.6 ± 1.33 µM. It also gave a Tmax ([3]; IV (2 mg/kg)) of 0.02 h, a clearance ([3]; IV (2 mg/kg)) of 5.67 mL/min/kg and a half-life ([3]; IV (2 mg/kg)) of 3.21 ± 0.39 h. It also gave an MRT inf ([3]; IV (2 mg/kg)) of 2.98 ± 0.17 h, a Vd ([3]; IV (2 mg/kg)) of 1.57 ± 0.2 L/kg and an AUC(0-inf) ([3]; PO (10 mg/kg)) of 162000 ± 11900 ng·h/mL. It also gave an AUC(0-t) ([3]; PO (10 mg/kg)) of 24600 ± 4100 ng·h/mL, a Cmax ([3]; PO (10 mg/kg)) of 15.3 ± 3.86 µM and a Tmax ([3]; PO (10 mg/kg)) of 0.58 ± 0.38 h. The half-life ([3]; PO (10 mg/kg)) was 2.76 ± 0.69 h, the MRT inf ([3]; PO (10 mg/kg)) was 3.93 ± 0.41 h and the F [3] was 84%. The EC50 (CSM14.1 cells) was 20 to 100 µM.
With `O=C(c1ccccc1F)N1CCN(c2ccnc3cc(Cl)ccc23)CC1` [Compound D2, (4-(7-Chloroquinolin-4-yl)piperazin-1-yl)(2-fluorophenyl)methanone] the AUC(0-inf) ([3]; IV (2 mg/kg)) was 1840 ± 209 ng·h/mL, the AUC(0-t) ([3]; IV (2 mg/kg)) was 1790 ± 187 ng·h/mL and the Cmax ([3]; IV (2 mg/kg)) was 7.59 ± 0.55 µM. It also gave a Tmax ([3]; IV (2 mg/kg)) of 0.017 h, a clearance ([3]; IV (2 mg/kg)) of 18.3 mL/min/kg and a half-life ([3]; IV (2 mg/kg)) of 1.77 ± 0.33 h. It also gave an MRT inf ([3]; IV (2 mg/kg)) of 1.57 ± 0.22 h, a Vd ([3]; IV (2 mg/kg)) of 2.76 ± 0.22 L/kg and an AUC(0-inf) ([3]; PO (10 mg/kg)) of 8060 ± 3220 ng·h/mL. The AUC(0-t) ([3]; PO (10 mg/kg)) was 7890 ± 3320 ng·h/mL, the Cmax ([3]; PO (10 mg/kg)) was 7.33 ± 12.5 µM and the Tmax ([3]; PO (10 mg/kg)) was 0.42 ± 0.14 h. The half-life ([3]; PO (10 mg/kg)) was 1.76 ± 0.66 h, the MRT inf ([3]; PO (10 mg/kg)) was 2.88 ± 1.21 h and the F [3] was 88%. It also gave an EC50 (CSM14.1 cells) of under 20 µM.
